Experimental data: PubChem BioAssay AID328 (DTP/NCI, 2004)
“And” between values parts separate entries of the source, which are not always exact repeats. Equal values may be shown once. Toxic doses and inconclusive results are not listed.

Test system: BDF1 mice, P388 leukemia ip, median survival T/C
Experiment: NCI In Vivo Anticancer Drug Screen. Data for tumor model P388 Leukemia (intraperitoneal) in B6D2F1 (BDF1) mice
Details: endpoint: median survival time, higher = longer survival
Summary of the method: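 Each value expresses how treatment altered survival: treated-mouse outcome over vehicle-mouse outcome, both groups bearing the transplanted tumour.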

[1] = dose: 50.0 mg/kg/injection, schedule: Q01DX009 (ip), vehicle: saline with Tween-80
[2] = dose: 100.0 mg/kg/injection, schedule: Q01DX009 (ip), vehicle: saline with Tween-80
[3] = dose: 100.0 mg/kg/injection, schedule: Q04DX003 (ip), vehicle: Klucel (hydroxypropylcellulose) (HPC)
[4] = dose: 200.0 mg/kg/injection, schedule: Q04DX003 (ip), vehicle: Klucel (hydroxypropylcellulose) (HPC)
[5] = dose: 400.0 mg/kg/injection, schedule: Q04DX003 (ip), vehicle: Klucel (hydroxypropylcellulose) (HPC)

CSc1sc2ccccc2[n+]1C
T/C (dose: 25.0 mg/kg/injection, schedule: Q01DX009 (ip), vehicle: saline): 100 % of control and 104 % of control
T/C (dose: 50.0 mg/kg/injection, schedule: Q01DX009 (ip), vehicle: saline): 90 % of control and 120 % of control
T/C (dose: 100.0 mg/kg/injection, schedule: Q01DX009 (ip), vehicle: saline): 86 % of control and 119 % of control

[Cl][Co]([Cl])[Cl].[NH-]CC[N-]CC[NH-]
T/C [1]: 109 % of control
T/C [2]: 109 % of control

COc1ccc(C(O)CNC(=O)c2ccccc2)cc1 (stereo not given)
T/C (dose: 66.0 mg/kg/injection, schedule: Q04DX003 (ip), vehicle: Klucel (hydroxypropylcellulose) (HPC)): 109 % of control and 110 % of control
T/C [3]: 255 % of control and 104 % of control and 115 % of control
T/C (dose: 150.0 mg/kg/injection, schedule: Q04DX003 (ip), vehicle: Klucel (hydroxypropylcellulose) (HPC)): 109 % of control and 115 % of control

Oc1c(Cl)c(Cl)c(Cl)c2cccnc12
T/C (dose: 3.13 mg/kg/injection, schedule: Q01DX009 (ip), vehicle: saline with Tween-80): 103 % of control
T/C (dose: 6.25 mg/kg/injection, schedule: Q01DX009 (ip), vehicle: saline with Tween-80): 106 % of control
T/C (dose: 12.5 mg/kg/injection, schedule: Q01DX009 (ip), vehicle: saline with Tween-80): 104 % of control

CC[C@H](CC[C@@H](C)[C@H]1CC[C@H]2[C@@H]3CC=C4C[C@@H](O)CC[C@]4(C)[C@H]3CC[C@]12C)C(C)C
T/C [3]: 100 % of control
T/C [4]: 86 % of control
T/C [5]: 100 % of control

OC(CN(CCCl)CCCl)C(O)C(O)C(O)CN(CCCl)CCCl (stereo not given)
T/C (dose: 0.13 mg/kg/injection, schedule: Q04DX003 (ip), vehicle: saline): 150 % of control
T/C (dose: 0.2 mg/kg/injection, schedule: Q04DX003 (ip), vehicle: saline): 166 % of control
T/C (dose: 0.25 mg/kg/injection, schedule: Q04DX003 (ip), vehicle: saline): 155 % of control
T/C (dose: 0.3 mg/kg/injection, schedule: Q04DX003 (ip), vehicle: saline): 191 % of control
T/C (dose: 0.44 mg/kg/injection, schedule: Q04DX003 (ip), vehicle: saline): 212 % of control
T/C (dose: 0.5 mg/kg/injection, schedule: Q04DX003 (ip), vehicle: saline): 183 % of control
T/C (dose: 0.67 mg/kg/injection, schedule: Q01DX009 (ip), vehicle: saline): 241 % of control
T/C (dose: 1.0 mg/kg/injection, schedule: Q01DX009 (ip), vehicle: saline): 219 % of control
T/C (dose: 1.0 mg/kg/injection, schedule: Q04DX003 (ip), vehicle: saline): 177 % of control and 213 % of control
T/C (dose: 1.5 mg/kg/injection, schedule: Q01DX009 (ip), vehicle: saline): 213 % of control
T/C (dose: 1.5 mg/kg/injection, schedule: Q04DX003 (ip), vehicle: saline): 272 % of control and 177 % of control
T/C (dose: 2.0 mg/kg/injection, schedule: Q04DX003 (ip), vehicle: saline): 281 % of control
T/C (dose: 2.25 mg/kg/injection, schedule: Q04DX003 (ip), vehicle: saline): 245 % of control
T/C (dose: 6.0 mg/kg/injection, schedule: Q04DX003 (ip), vehicle: saline): 86 % of control
T/C (dose: 26.0 micrograms/kg/injection, schedule: Q04DX003 (ip), vehicle: saline): 100 % of control
T/C (dose: 40.0 micrograms/kg/injection, schedule: Q04DX003 (ip), vehicle: saline): 112 % of control
T/C (dose: 60.0 micrograms/kg/injection, schedule: Q04DX003 (ip), vehicle: saline): 120 % of control

Cn1cc(N)c2ccccc2c1=O
T/C (dose: 50.0 mg/kg/injection, schedule: Q01DX005 (ip), vehicle: suspension in saline): 92 % of control
T/C (dose: 100.0 mg/kg/injection, schedule: Q01DX005 (ip), vehicle: suspension in saline): 120 % of control

CC(=O)NC(Cc1ccc(N(CCCl)CCCl)cc1)C(=O)NC(CC(C)C)C(=O)O (stereo not given)
T/C (dose: 20.0 mg/kg/injection, schedule: Q04DX003 (ip), vehicle: other): 152 % of control
T/C (dose: 40.0 mg/kg/injection, schedule: Q04DX003 (ip), vehicle: other): 203 % of control
T/C (dose: 80.0 mg/kg/injection, schedule: Q04DX003 (ip), vehicle: other): 239 % of control
T/C (dose: 160.0 mg/kg/injection, schedule: Q04DX003 (ip), vehicle: other): 104 % of control

O=C(COC1CCCCC1)OC1CCCCC1
T/C (dose: 25.0 mg/kg/injection, schedule: Q01DX009 (ip), vehicle: saline with Tween-80): 100 % of control
T/C [1]: 113 % of control
T/C [2]: 118 % of control

COc1ccc(NC(=O)Oc2ccc(OC)cc2)cc1
T/C [3]: 95 % of control
T/C [4]: 100 % of control
T/C [5]: 91 % of control

FC(F)(F)/C([S-])=C(/[S-])C(F)(F)F.FC(F)(F)/C([S-])=C(/[S-])C(F)(F)F.FC(F)(F)/C([S-])=C(/[S-])C(F)(F)F.FC(F)(F)/C([S-])=C(/[S-])C(F)(F)F.[Co+3].[Co+3]
T/C (dose: 12.5 mg/kg/injection, schedule: Q04DX003 (ip), vehicle: other): 110 % of control
T/C (dose: 25.0 mg/kg/injection, schedule: Q04DX003 (ip), vehicle: other): 120 % of control
